In series [1] the test system is Mus musculus. The series is described as follows: Effect on brain water content in contralateral hemisphere in male ddY mouse model of collagenase induced intracerebral hemorrhage at 100 mg/kg, po pretreated with collagenase for 20 mins followed by compound administration via oral gavage and measured at 24 hrs. The class given is functional, organism-based.
The subject of series [2] is Mus musculus. The series is described as follows: Suppression of IL-1beta mRNA expression in po dosed male ddY mouse model of collagenase induced intracerebral hemorrhage pretreated with collagenase for 20 mins followed by compound administration via oral gavage and measured at 24 hrs by qRT-PCR analysis. In kind it is functional, organism-based. Particulars: dose 50-100 mg/kg.

Series [3] is described as follows: Drug uptake in brain of male ddY mouse model of collagenase induced intracerebral hemorrhage assessed as appearance of unchanged form of drug by measuring retention time at 100 mg/kg, po pretreated with collagenase for 20 mins followed by compound administration via oral gavage and measured at 24 hrs by LC-MS analysis. The class given is ADME, organism-based. To be noted: in vivo.

Series [4] concerns Mus musculus. The series is described as follows: In vivo inhibition of HMGB1 in male ddY mouse model of collagenase induced intracerebral hemorrhage assessed as reduction in brain water content in ipsilateral hemisphere at 100 mg/kg, po pretreated with collagenase for 20 mins followed by compound administration via oral gavage and measured at 24 hrs. In kind it is functional, organism-based.

Series [5] can be described thus: Solubility of compound at >10 uM. The class given is physicochemical.
Series [6] has as its system Mus musculus. The series is described as follows: Effect on hematoma size in male ddY mouse model of collagenase induced intracerebral hemorrhage at 100 mg/kg, po pretreated with collagenase for 20 mins followed by compound administration via oral gavage and measured at 24 hrs. The class given is functional, organism-based.
Series [7] concerns Mus musculus. The series is described as follows: Neuroprotective activity in male ddY mouse model of collagenase induced intracerebral hemorrhage assessed as rescue of ICH-induced neuronal loss by measuring increase in NeuN-positive neurons in periphery of […] at 100 mg/kg, po pretreated with collagenase for 20 mins followed by compound administration via oral gavage and measured at 24 hrs by immunohistochemical staining based analysis. In kind it is functional, organism-based.

Series [8] concerns Peritoneal macrophage. Kind of series: Suppression of HMGB1-induced IL-1beta mRNA expression in male ddY mouse Peritoneal macrophage cells at 10 uM incubated for 2 hrs by qRT-PCR analysis. In kind it is functional, cell-based. For orientation: Real-time PCR tracks product formation cycle by cycle.
Series [9] relates to Mus musculus. The series is described as follows: Effect on brain water content in cerebellum in male ddY mouse model of collagenase induced intracerebral hemorrhage at 100 mg/kg, po pretreated with collagenase for 20 mins followed by compound administration via oral gavage and measured at 24 hrs. The class given is functional, organism-based.
Series [10] concerns Peritoneal macrophage. Kind of series: Suppression of HMGB1-induced IL-1beta mRNA expression in male ddY mouse Peritoneal macrophage cells at 10 uM incubated for 2 hrs in presence of RU486 by qRT-PCR analysis. The class given is functional, cell-based.
Series [11] has as its system Mus musculus. Kind of series: In vivo inhibition of HMGB1 in male ddY mouse model of collagenase induced intracerebral hemorrhage assessed as reduction in AQP4 protein level at 100 mg/kg, po pretreated with collagenase for 20 mins followed by compound administration via oral gavage and measured at 24 hrs by Western blot analysis. In kind it is functional, organism-based. In general terms: Immunoblotting shows a protein as a band on a membrane.

The test system of series [12] is RAW264.7. The series is described as follows: Cytotoxicity against mouse RAW264.7 cells at 100 uM measured after 2 hrs by LDH assay. The class given is toxicity, cell-based. To be noted: raw264.7, 2 h.
The subject of series [13] is RAW264.7. The series is described as follows: Cytotoxicity against mouse RAW264.7 cells at 30 to 100 uM measured after 2 hrs by LDH assay. In kind it is toxicity, cell-based. Particulars: raw264.7, 2 h, dose 30-100 µM.
In series [14] the test system is Peritoneal macrophage. The series is described as follows: Suppression of HMGB1-induced IL-1beta mRNA expression in male ddY mouse Peritoneal macrophage cells at 10 nM incubated for 2 hrs in presence of RU486 by qRT-PCR analysis. The class given is functional, cell-based.

Molecules are shown by their SMILES. Activity calls are given as the source filed them. The calls are words filed in the database; no cut-off is given here.

With `COC(=O)[C@@]1(C)CC[C@]2(C)CC[C@]3(C)C(=CC(=O)[C@@H]4[C@@]5(C)CCC(=O)C(C)(C)[C@@H]5CC[C@]43C)[C@@H]2C1`, the outcome in series [1], in series [6] and in series [9] was inactive. Besides, the Activity entry in [2] is “Dose-Dependent Effect”. Also, the Retention_time in series [3] came to 11.3 min. Besides, the inhibition result in [4] and in series [11] was “Active” in each case. In addition, the solubility result in series [5] is listed as “Insoluble”. Also, the outcome in series [7], in series [8] and in series [10] was Active.
On to `CC1(C)[C@@H](O[C@H]2O[C@H](C(=O)O)[C@@H](O)[C@H](O)[C@H]2O[C@@H]2O[C@H](C(=O)O)[C@@H](O)[C@H](O)[C@H]2O)CC[C@]2(C)[C@H]3C(=O)C=C4[C@@H]5C[C@@](C)(C(=O)O)CC[C@]5(C)CC[C@@]4(C)[C@]3(C)CC[C@@H]12`, for which the outcome in series [8] was Active.
In the case of `CC1(C)C(=O)CC[C@]2(C)[C@H]3C(=O)C=C4[C@@H]5C[C@@](C)(C(=O)O)CC[C@]5(C)C[C@H](O)[C@@]4(C)[C@]3(C)CC[C@@H]12`, in series [8], the result was inactive. In addition, in series [12], the Activity entry was “Toxic”.
For `CC1(C)[C@@H](O)CC[C@]2(C)[C@H]3C(=O)C=C4[C@@H]5C[C@@](C)(C(=O)O)CC[C@]5(C)CC[C@@]4(C)[C@]3(C)CC[C@@H]12` [ENOXOLONE], in [13], the Activity result is reported as “Toxic”.
Take `C[C@]12CCC(=O)C=C1CC[C@@H]1[C@@H]2[C@@H](O)C[C@@]2(C)[C@H]1CC[C@]2(O)C(=O)CO`: in series [14], the result was inactive.
As for `CC1(C)[C@@H](O)CC[C@]2(C)[C@H]3C(=O)C=C4[C@@H]5C[C@@](C)(C(=O)O)CC[C@]5(C)C[C@H](O)[C@@]4(C)[C@]3(C)CC[C@@H]12`, in series [8], the result was inactive.
`CC1(C)C(=O)CC[C@]2(C)[C@H]3C(=O)C=C4[C@@H]5C[C@@](C)(C(=O)O)CC[C@]5(C)CC[C@@]4(C)[C@]3(C)CC[C@@H]12`: the Activity result in [12] is on record as “Toxic”.

(Values after ChEMBL document CHEMBL5579891, “A Glycyrrhizin Derivative with a More Potent Inhibitory Activity against High-Mobility Group Box 1 Efficiently Discovered by Chemical Synthesis Inspired by the Bioconversion Products of an Endophytic Fungus Isolated from Licorice” (J Med Chem, 2024).)
